This passage reports IC50 results from PMC4071600, “Amino Alcohols from the Ascidian Pseudodistoma sp” (Marine Drugs, 2014).

The assay concerns the target T1, Na^+/K^+-ATPase.
T1 construct: gene ATP1A1; with Sodium/potassium-transporting ATPase subunit beta-1
As to the kind of experiment: Na+/K+-ATPase inhibition assay (by reference). It counts as biochemical. From the text:
Na+/K+-ATPase inhibition assay (by reference) on Na^+/K^+-ATPase
As for `CCCCCCCCC/C=C/[C@H](O)[C@H](C)N` [compound 1, (E)-2-aminotetradec-4-en-3-ol], the IC50 (in general, the midpoint of a concentration-inhibition curve) turned out to be 62 µM.

Molecule `CCCCCCCC/C=C/C[C@H](O)[C@H](C)N` [compound 2, Pseudoaminol B] showed an IC50 of 78.4 µM. This IC50 and that of the molecule before are within 1.5-fold of each other.

Take `CCCCCCC/C=C/C=C/[C@H](O)[C@H](C)N` [compound 3, Pseudoaminol C]: the IC50 was greater than 200 µM.

In the case of `CCCCCCCC/C=C/C[C@H](O)CN` [compound 4, Pseudoaminol D], inhibition was half-maximal at 190 µM (IC50).

Turning to `CC/C=C\C/C=C\CC/C=C/C=C/[C@H](O)[C@H](C)N` [compound 5, Pseudoaminol E], the IC50 was determined as 101 µM.

As for `CCCCCCCCC/C=C/[C@H](O)[C@H](C)NCC(=O)O` [compound 6, Pseudoaminol F], the IC50 is greater than 200 µM.

Consider `CC/C=C\C/C=C\CC/C=C/C=C/[C@H](O)[C@H](C)NCC(=O)O` [compound 7, Pseudoaminol G], for which the 50% inhibitory concentration (IC50) is greater than 200 µM.

The molecule `CCCCCCCCC/C=C/[C@@H]1OC(=O)N[C@H]1C` [compound 8, Compound 8] returned an IC50 of 71.4 µM.

In turn, `CCCCCCCCCCC[C@H](O)[C@H](C)N` [compound 9, Compound 9] had a concentration for half-maximal inhibition (IC50) of 46.8 µM.

In turn, `CCCCCCCCCCC[C@H](O)[C@H](C)NC(C)=O` [compound 10, Compound 10] yielded an IC50 of 118 µM. Against the preceding molecule, the IC50 is about 2.5-fold higher.

Take `CCCCCCCCCCC[C@H](OC(=O)c1ccccc1)[C@H](C)NC(=O)c1ccccc1` [compound 12, Compound 12]: the IC50 is 108 µM.

For the molecule `CCCCCCCCCCC[C@H](O)CN` [compound 13, Compound 13], the 50% inhibitory concentration (IC50) was 130 µM.

As to `CCCCCCCCCCC[C@H](O)CNC(C)=O` [compound 14, Compound 14], the IC50 was greater than 200 µM.
